Measured values taken from patent US9816998B2, “Circulating exosomes as diagnostic/prognostic indicators and therapeutic targets of melanoma and other cancers” (Cornell University, priority 2011, dated 2017).

Test system: HGF/MET signaling
Test: BM cell response to HGF after exosome pre-treatment: western blot of phospho-S6 kinase and phospho-ERK
Assay type: cell-based, mice
Details: 20 nM, before HGF addition
Text: Mice were sacrificed and BM was isolated by flushing the femur and tibia with staining media (1% BSA in PBS) using a 25G½″ needle (BD) and further disrupting it by pipeting. Cell suspensions were filtered through 70 μm cell strainers (BD) prior to centrifugation. Red blood cells (RBC) from BM suspensions were lysed using ACK Lysis Buffer (Invitrogen). To enrich for progenitors, lineage positive (Lin^+, i.e., CD5, CD45R, CD19, CD11b, Ly6G/C, 7-4, TER119 positive) BM cells were immunomagnetically depleted using the EasySep® Mouse Hematopoietic Progenitor Cell Enrichment Kit (Stem Cell Technologies) as per manufacturer's instructions. For in vitro BM treatment with exosomes, BM cells were flushed as above and cultured in Stem Span (Stem Cell Technologies) for 16 hours in the presence or absence of 20 μg/ml indicated exosomes. For HGF analysis BM cells were then stimulated with 5 ng/ml HGF (Peprotech) for 4 hours and collected for Western blot analysis in RIPA buffer as indicated below by adding phosphatase inhibitors (1 mM Sodium orthovanadate and 5 mM β-Glycerol phosphate). For MET signaling inhibition, cells were incubated with 20 nM Crizotinib (Selleck Bio) 1 hour before HGF stimulation.
Exosomes or cells were lysed with RIPA buffer containing a complete protease inhibitor tablet (Roche). Lysates were cleared by centrifugation at 14,000×g for 20 min. […]

C[C@@H](Oc1cc(-c2cnn(C3CCNCC3)c2)cnc1N)c1c(Cl)ccc(F)c1Cl [Crizotinib] was tested, and the “Phosphorylation of ERK after F10 exosome treatment” value was “blocked the phosphorylation” and the “Phosphorylation of S6-kinase after F10 exosome treatment” value was “blocked the phosphorylation”.
